Laboratory results from patent US9452986B2, “6-heteroaryloxy- or 6-aryloxy-quinoline-2-carboxamides and method of use” (AbbVie Inc., priority 2014, dated 2016).
Where two headings read alike, the source gives them in different places.

Target: recombinant human Nav1.7 (Homo sapiens (Human), UniProt Q15858)
Assay: FRET-based membrane potential assay, recombinant human sodium channel Nav1.7
Assay type: cell-based
Conditions: read-out: FRET-Membrane Potential Nav1.7 IC50
Method in brief: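 Channel activation used veratridine at its EC80, set by a dilution curve each experiment, together with Leiurus scorpion venom, added 3 min after compound. Membrane-potential ratio signals from FLIPR Tetra in HEPES-buffered HBSS were fitted to a four-parameter Hill equation for percent inhibition and IC50.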

[1] = HEK293 cells stably expressing recombinant human Nav1.7, veratridine + scorpion venom depolarization

Sequence of recombinant human Nav1.7 (Q15858 whole entry): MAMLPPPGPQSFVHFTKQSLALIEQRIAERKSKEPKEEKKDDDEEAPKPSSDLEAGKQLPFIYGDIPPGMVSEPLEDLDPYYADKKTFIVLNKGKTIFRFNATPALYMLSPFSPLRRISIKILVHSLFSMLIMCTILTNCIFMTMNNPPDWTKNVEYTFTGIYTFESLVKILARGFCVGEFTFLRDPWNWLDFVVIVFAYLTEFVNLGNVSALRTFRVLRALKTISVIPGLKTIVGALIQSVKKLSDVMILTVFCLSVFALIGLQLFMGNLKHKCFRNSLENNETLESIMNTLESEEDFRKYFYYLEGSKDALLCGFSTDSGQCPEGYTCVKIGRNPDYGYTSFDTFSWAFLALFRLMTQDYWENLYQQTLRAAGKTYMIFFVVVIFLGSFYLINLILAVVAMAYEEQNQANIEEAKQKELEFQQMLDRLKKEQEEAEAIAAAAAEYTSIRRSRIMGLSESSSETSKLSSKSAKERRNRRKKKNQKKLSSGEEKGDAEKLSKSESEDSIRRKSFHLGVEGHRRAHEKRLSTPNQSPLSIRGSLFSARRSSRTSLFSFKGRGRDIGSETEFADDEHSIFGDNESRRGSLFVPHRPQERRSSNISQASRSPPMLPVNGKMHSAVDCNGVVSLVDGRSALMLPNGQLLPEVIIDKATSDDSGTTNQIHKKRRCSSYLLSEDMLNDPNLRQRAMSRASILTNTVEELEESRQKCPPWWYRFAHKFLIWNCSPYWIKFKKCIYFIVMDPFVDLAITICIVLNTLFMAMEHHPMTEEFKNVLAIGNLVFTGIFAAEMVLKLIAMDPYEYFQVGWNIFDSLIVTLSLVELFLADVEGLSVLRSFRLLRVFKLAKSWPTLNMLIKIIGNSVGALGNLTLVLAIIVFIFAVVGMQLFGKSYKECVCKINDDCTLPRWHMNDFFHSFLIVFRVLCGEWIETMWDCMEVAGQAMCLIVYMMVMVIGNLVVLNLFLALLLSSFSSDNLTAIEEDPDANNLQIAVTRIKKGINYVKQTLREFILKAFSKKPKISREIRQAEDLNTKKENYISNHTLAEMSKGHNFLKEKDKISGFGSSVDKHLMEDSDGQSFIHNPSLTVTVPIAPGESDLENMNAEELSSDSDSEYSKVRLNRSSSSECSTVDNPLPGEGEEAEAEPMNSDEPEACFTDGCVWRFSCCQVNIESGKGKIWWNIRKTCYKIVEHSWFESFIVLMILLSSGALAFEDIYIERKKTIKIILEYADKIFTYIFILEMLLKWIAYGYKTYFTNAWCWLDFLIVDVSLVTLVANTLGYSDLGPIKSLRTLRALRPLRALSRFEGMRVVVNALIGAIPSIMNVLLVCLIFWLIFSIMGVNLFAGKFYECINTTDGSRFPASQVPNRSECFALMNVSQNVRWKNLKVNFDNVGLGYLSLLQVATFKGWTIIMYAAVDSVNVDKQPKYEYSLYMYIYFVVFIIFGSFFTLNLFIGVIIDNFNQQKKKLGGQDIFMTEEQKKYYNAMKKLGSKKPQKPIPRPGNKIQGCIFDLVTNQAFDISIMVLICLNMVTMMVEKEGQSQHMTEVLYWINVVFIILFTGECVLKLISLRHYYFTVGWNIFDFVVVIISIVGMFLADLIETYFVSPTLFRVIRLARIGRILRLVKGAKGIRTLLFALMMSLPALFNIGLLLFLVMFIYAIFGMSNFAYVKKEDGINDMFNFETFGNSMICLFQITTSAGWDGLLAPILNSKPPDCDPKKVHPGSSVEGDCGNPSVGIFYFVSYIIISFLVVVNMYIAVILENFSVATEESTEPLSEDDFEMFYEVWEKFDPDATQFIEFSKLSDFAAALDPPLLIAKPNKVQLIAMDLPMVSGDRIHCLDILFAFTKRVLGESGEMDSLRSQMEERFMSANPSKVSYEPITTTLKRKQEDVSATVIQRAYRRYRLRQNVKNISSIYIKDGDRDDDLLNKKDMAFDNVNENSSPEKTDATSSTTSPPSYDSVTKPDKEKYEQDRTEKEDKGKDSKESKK

SMILES | IC50 [1] [nM] | IC50 [nM]
O=C(c1ccc2cc(Oc3ccc(C(F)(F)F)cn3)ccc2n1)N1CCN(c2cnccn2)CC1 [Example 268, [4-(pyrazin-2-yl)piperazin-1-yl](6-{[5-(trifluoromethyl)pyridin-2-yl]oxy}quinolin-2-yl)methanone] | 2980 | –
COC(=O)N1CCN(C(=O)c2ccc3cc(Oc4ccc(C(F)(F)F)cn4)ccc3n2)CC1 [Example 186, methyl 4-[(6-{[5-(trifluoromethyl)pyridin-2-yl]oxy}quinolin-2-yl)carbonyl]piperazine-1-carboxylate] | 3970 | –
O=C(c1ccc2cc(Oc3ncc(C(F)(F)F)cc3F)ccc2n1)N1CCNCC1 [Example 250, (6-{[3-fluoro-5-(trifluoromethyl)pyridin-2-yl]oxy}quinolin-2-yl)(piperazin-1-yl)methanone] | – | 1390
O=C(NC1CC(N2CCOCC2)C1)c1ccc2cc(Oc3ccc(C(F)(F)F)nc3)ccc2n1 (stereo not drawn) [Example 574, N-[3-(morpholin-4-yl)cyclobutyl]-6-{[6-(trifluoromethyl)pyridin-3-yl]oxy}quinoline-2-carboxamide] | 295 | –
CN1CCC(NC(=O)c2ccc3cc(Oc4ccc(C#N)cc4)ccc3n2)C1=O (stereo not drawn) [Example 143, 6-(4-cyanophenoxy)-N-(1-methyl-2-oxopyrrolidin-3-yl)quinoline-2-carboxamide] | 1080 | –
O=C(NC1CC(F)(F)C1)c1ccc2cc(Oc3ccc(C(F)(F)F)nc3)ccc2n1 [Example 555, N-(3,3-difluorocyclobutyl)-6-{[6-(trifluoromethyl)pyridin-3-yl]oxy}quinoline-2-carboxamide] | 2700 | –
CS(=O)(=O)[C@@H]1CN(C(=O)c2ccc3cc(Oc4ccc(C(F)(F)F)cn4)ccc3n2)C[C@H]1O (relative stereo) [Example 351, [trans-3-hydroxy-4-(methylsulfonyl)pyrrolidin-1-yl](6-{[5-(trifluoromethyl)pyridin-2-yl]oxy}quinolin-2-yl)methanone] | 3600 | –
O=C(NC1CCS(=O)(=O)C1)c1ccc2cc(Oc3ccc(Cl)nn3)ccc2n1 (stereo not drawn) [Example 165, 6-[(6-chloropyridazin-3-yl)oxy]-N-(1,1-dioxidotetrahydrothiophen-3-yl)quinoline-2-carboxamide] | > 20000 | –
O=C(N[C@@H]1CC[C@@H]2CN(Cc3ccccc3)C[C@@H]21)c1ccc2cc(Oc3ccc(C(F)(F)F)cn3)ccc2n1 [Example 259, N-[(3aR,4R,6aS)-2-benzyloctahydrocyclopenta[c]pyrrol-4-yl]-6-{[5-(trifluoromethyl)pyridin-2-yl]oxy}quinoline-2-carboxamide] | – | 2060
O=C(c1ccc2cc(Oc3ccc(C(F)(F)F)cn3)ccc2n1)N1CCC[C@H]1CO [Example 237, [(2S)-2-(hydroxymethyl)pyrrolidin-1-yl](6-{[5-(trifluoromethyl)pyridin-2-yl]oxy}quinolin-2-yl)methanone] | – | 3070
O=C(NCC(=O)N1CC[C@H](O)C1)c1ccc2cc(Oc3ccc(C(F)(F)F)cn3)ccc2n1 [Example 560, N-{2-[(3S)-3-hydroxypyrrolidin-1-yl]-2-oxoethyl}-6-{[5-(trifluoromethyl)pyridin-2-yl]oxy}quinoline-2-carboxamide] | – | 2870
O=C(c1ccc2cc(Oc3ccc(C(F)(F)F)cn3)ccc2n1)N1CCC(F)(F)C1 [Example 404, (3,3-difluoropyrrolidin-1-yl)(6-{[5-(trifluoromethyl)pyridin-2-yl]oxy}quinolin-2-yl)methanone] | 1950 | –
O=C(NC1CCSC1)c1ccc2cc(Oc3ccc(C(F)(F)F)cn3)ccc2n1 (stereo not drawn) [Example 420, N-(tetrahydrothiophen-3-yl)-6-{[5-(trifluoromethyl)pyridin-2-yl]oxy}quinoline-2-carboxamide] | 2430 | –
CN1C(=O)CN(C(=O)c2ccc3cc(Oc4ccc(C(F)(F)F)cn4)ccc3n2)CC12COC2 [Example 188, 5-methyl-8-[(6-{[5-(trifluoromethyl)pyridin-2-yl]oxy}quinolin-2-yl)carbonyl]-2-oxa-5,8-diazaspiro[3.5]nonan-6-one] | 9530 | –
O=C(c1ccc2cc(Oc3ccc(C(F)(F)F)cn3)ccc2n1)N1CCOCC1 [Example 296, morpholin-4-yl(6-{[5-(trifluoromethyl)pyridin-2-yl]oxy}quinolin-2-yl)methanone] | – | 12400
CC1(O)CN(C(=O)c2ccc3cc(Oc4ccc(C(F)(F)F)cn4)ccc3n2)C1 [Example 198, (3-hydroxy-3-methylazetidin-1-yl)(6-{[5-(trifluoromethyl)pyridin-2-yl]oxy}quinolin-2-yl)methanone] | 2210 | –
O=C(c1ccc2cc(Oc3ccc(C(F)(F)F)cn3)ccc2n1)N1CCN(S(=O)(=O)CCC(F)(F)F)CC1 [Example 332, (6-{[5-(trifluoromethyl)pyridin-2-yl]oxy}quinolin-2-yl) {4-[(3,3,3-trifluoropropyl)sulfonyl]piperazin-1-yl}methanone] | 10100 | –
N#Cc1ccc(Oc2ccc3nc(C(=O)N[C@H]4CCOC4)ccc3c2)cc1 [Example 118, 6-(4-cyanophenoxy)-N-[(3S)-tetrahydrofuran-3-yl]quinoline-2-carboxamide] | – | 2270

SMILES | IC50 [1] [nM] | IC50 [nM]
O=C(NC1COC1)c1ccc2cc(Oc3ccc(C(F)F)cn3)ccc2n1 [Example 475, 6-{[5-(difluoromethyl)pyridin-2-yl]oxy}-N-(oxetan-3-yl)quinoline-2-carboxamide] | – | 1960
O=C(c1ccc2cc(Oc3ccc(C(F)(F)F)cn3)ccc2n1)N1CCn2cnnc2C1 [Example 170, 5,6-dihydro[1,2,4]triazolo[4,3-a]pyrazin-7(8H)-yl(6-{[5-(trifluoromethyl)pyridin-2-yl]oxy}quinolin-2-yl)methanone] | 8870 | –
O=C(c1ccc2cc(Oc3ccc(C(F)F)cn3)ccc2n1)N1CCC(N2CCOCC2)CC1 [Example 435, (6-{[5-(difluoromethyl)pyridin-2-yl]oxy}quinolin-2-yl)[4-(morpholin-4-yl)piperidin-1-yl]methanone] | – | 12600
CS(=O)(=O)NC1CN(C(=O)c2ccc3cc(Oc4ccc(C(F)(F)F)cn4)ccc3n2)C1 [Example 428, N-{1-[(6-{[5-(trifluoromethyl)pyridin-2-yl]oxy}quinolin-2-yl)carbonyl]azetidin-3-yl}methanesulfonamide] | 10300 | –
N[C@@H]1CCN(C(=O)c2ccc3cc(Oc4ccc(C(F)(F)F)cn4)ccc3n2)C[C@H]1F [Example 583, [(3R,4R)-4-amino-3-fluoropiperidin-1-yl](6-{[5-(trifluoromethyl)pyridin-2-yl]oxy}quinolin-2-yl)methanone] | – | 960
COc1cccc(CNC(=O)c2ccc3cc(Oc4ccc(C#N)cc4)ccc3n2)c1OC [Example 105, 6-(4-cyanophenoxy)-N-(2,3-dimethoxybenzyl)quinoline-2-carboxamide] | 7250 | –
O=C(c1ccc2cc(Oc3ccc(C(F)(F)F)cn3)ccc2n1)N1CC(Oc2ccccc2)C1 [Example 201, (3-phenoxyazetidin-1-yl)(6-{[5-(trifluoromethyl)pyridin-2-yl]oxy}quinolin-2-yl)methanone] | – | > 20000
O=C(c1ccc2cc(Oc3ccc(C(F)F)cn3)ccc2n1)N1CC[C@H](F)C1 [Example 576, (6-{[5-(difluoromethyl)pyridin-2-yl]oxy}quinolin-2-yl) [(3S)-3-fluoropyrrolidin-1-yl]methanone] | 10100 | –
O=C(NCC(=O)N1CCCCC1)c1ccc2cc(Oc3ccc(C(F)(F)F)cn3)ccc2n1 [Example 447, N-[2-oxo-2-(piperidin-1-yl)ethyl]-6-{[5-(trifluoromethyl)pyridin-2-yl]oxy}quinoline-2-carboxamide] | 690 | –
O=C(c1ccc2cc(Oc3ccc(C(F)(F)F)cn3)ccc2n1)N1CCCNC1 [Example 233, tetrahydropyrimidin-1(2H)-yl(6-{[5-(trifluoromethyl)pyridin-2-yl]oxy}quinolin-2-yl)methanone] | 586 | –
N#Cc1ccc(Oc2ccc3nc(C(=O)N4CCNC(=O)C4)ccc3c2)cc1 [Example 137, 4-({2-[(3-oxopiperazin-1-yl)carbonyl]quinolin-6-yl}oxy)benzonitrile] | 8240 | –
Cc1ccnc(Oc2ccc3nc(C(=O)NC4CCS(=O)(=O)C4)ccc3c2)n1 (stereo not drawn) [Example 163, N-(1,1-dioxidotetrahydrothiophen-3-yl)-6-[(4-methylpyrimidin-2-yl)oxy]quinoline-2-carboxamide] | > 20000 | –
O=C(c1ccc2cc(Oc3ccc(C(F)(F)F)cn3)ccc2n1)N1CC[C@H](O)[C@H](O)C1 (relative stereo) [Example 350, [cis-3,4-dihydroxypiperidin-1-yl](6-{[5-(trifluoromethyl)pyridin-2-yl]oxy}quinolin-2-yl)methanone] | > 20000 | –
O=C(c1ccc2cc(Oc3ccc(C(F)(F)F)cn3)ccc2n1)N1CCN(Cc2ncco2)CC1 [Example 510, [4-(1,3-oxazol-2-ylmethyl)piperazin-1-yl](6-{[5-(trifluoromethyl)pyridin-2-yl]oxy}quinolin-2-yl)methanone] | 7290 | –
O=C(NCC1CSC1)c1ccc2cc(Oc3ccc(C(F)(F)F)cn3)ccc2n1 [Example 600, N-(thietan-3-ylmethyl)-6-{[5-(trifluoromethyl)pyridin-2-yl]oxy}quinoline-2-carboxamide] | 1760 | –
N#Cc1ccc(Oc2ccc3nc(C(=O)N4CCCCCC4)ccc3c2)cc1 [Example 106, 4-{[2-(azepan-1-ylcarbonyl)quinolin-6-yl]oxy}benzonitrile] | 2420 | –
CCNS(=O)(=O)N1CCN(C(=O)c2ccc3cc(Oc4ccc(C(F)(F)F)cn4)ccc3n2)CC1 [Example 236, N-ethyl-4-[(6-{[5-(trifluoromethyl)pyridin-2-yl]oxy}quinolin-2-yl)carbonyl]piperazine-1-sulfonamide] | – | 1010
CN(CCS(C)(=O)=O)C(=O)c1ccc2cc(Oc3ccc(C(F)(F)F)cn3)ccc2n1 [Example 611, N-methyl-N-[2-(methylsulfonyl)ethyl]-6-{[5-(trifluoromethyl)pyridin-2-yl]oxy}quinoline-2-carboxamide] | – | 4990
